In patent US20020132319A1, “Peptide mutant of human ERAB or HADH2, its X-ray crystal structure, and materials and method for identification of inhibitors thereof” (priority 2000, published 2002):
“Also recorded” adds a separate entry of the source.

Key:
[1] = target: T1, wild-type ERAB or HADH2 (Homo sapiens, UniProt Q99714); assay: Isothermal titration calorimetry, inhibitor binding experiments
T1 construct: made in house; host or cells: E. coli (plasmid pMGH4; spontaneous mutant of strain BL21(DE3), 'B121 (DE3)' [sic])
T1 sequence (Q99714 1-261): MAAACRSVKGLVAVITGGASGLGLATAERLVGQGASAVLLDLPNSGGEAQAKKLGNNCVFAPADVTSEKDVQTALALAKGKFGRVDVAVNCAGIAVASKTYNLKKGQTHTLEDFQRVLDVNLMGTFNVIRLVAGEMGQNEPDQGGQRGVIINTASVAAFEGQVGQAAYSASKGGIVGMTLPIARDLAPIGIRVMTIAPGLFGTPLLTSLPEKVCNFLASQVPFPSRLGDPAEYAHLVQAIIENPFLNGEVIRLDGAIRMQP
Description: FIG. 5 is a plot of integrated-binding data obtained for a calorimetric titration of wild-type ERAB or HADH2 into Compound I in the presence and absence of cofactor. Wild-type ERAB or HADH2 (415 μM) was titrated into 20 μM inhibitor in the presence and absence of 20 μM cofactor at 15° C. The closed symbols represent the integrated-data points for 10 μL injections of ERAB or HADH2 into inhibitor in the absence of cofactor (♦); in the presence of NAD^+ (●); and in the presence of NADH (▪). The open symbols represent the integrated data points for the corresponding control titrations of ERAB or HADH2 into buffer (Δ); in the presence of NAD^+ (∘); and in the presence of NADH (□). Lines connecting the data points have been added for visual clarity.
(§1) Titrations described herein were performed with an MCS microcalorimeter (obtained from MicroCal, Inc., Northampton, […].).
(§2) For the inhibitor binding experiments, the titrations were performed in 25 mM MOPS (pH 7.5), 125 mM NaCl, 10% glycerol, 2.0% DMSO, 0.5 mM TCEP (Tri(2-carboxyethyl)phosphine), 0.1 mM EDTA at 15° C. The syringe contained 415 μM wild-type ERAB or HADH2 and the cell contained either 20 μM inhibitor, 20 μM cofactor, or 20 μM each of inhibitor and cofactor. After a preliminary 20 μL injection, 12 injections of 10.0 μL each were made at 4 minute intervals. Dilution control titrations of buffer into buffer, protein into buffer, and buffer into inhibitor, cofactor and inhibitor/cofactor mixture were also performed. For the cofactor binding experiments, the titrations were performed in 50 mM MOPS (3-(N-morpholino) propanesulfonic acid, pH 7.5), 250 mM NaCl, 10% glycerol, 2.0% DMSO, 10 mM TCEP at 15° C.

[2] = target: Streptomycetes hydrogenans 3α-20β- hydroxysteroid dehydrogenase (Streptomyces exfoliatus, UniProt P19992); assay: Inhibition of related SDR family member (Streptomyces enzyme); format: biochemical; conditions: at concentrations as high as 100 μM
Streptomycetes hydrogenans 3α-20β- hydroxysteroid dehydrogenase, sequence (P19992 whole entry): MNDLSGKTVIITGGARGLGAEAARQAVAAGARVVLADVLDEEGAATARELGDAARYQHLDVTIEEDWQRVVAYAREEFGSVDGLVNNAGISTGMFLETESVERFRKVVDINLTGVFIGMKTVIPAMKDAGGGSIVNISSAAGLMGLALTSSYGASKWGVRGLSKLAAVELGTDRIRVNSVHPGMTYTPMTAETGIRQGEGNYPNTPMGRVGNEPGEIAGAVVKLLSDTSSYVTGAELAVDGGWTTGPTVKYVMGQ

[3] = target: T2, ERAB or HADH2 (Homo sapiens, UniProt Q99714); assay: Spectrophotometric ERAB or HADH2 inhibition assay (NADH, acetoacetyl-CoA as substrate); format: biochemical
T2 construct: made in house; host or cells: E. coli (plasmid pMGH4)
T2 sequence (Q99714 1-261): T1 sequence (Q99714 1-261)
Description: The IC50 value for Compound I was determined spectrophotometrically by monitoring the […] of NADH to NAD^+ with acetoacetyl-CoA as substrate. Enzyme (2.5 nM) was preincubated with inhibitor for 400 seconds at 30° C. in the presence of 36 uM NADH, 25 mM MOPS, pH 7.5, 250 mM NaCl, 2% (v/v) DMSO, and 2.5 mM TCEP. The reaction was initiated by addition of substrate (38 μM). Reduction of NADH was monitored at […]. The IC50 value was determined by non-linear regression analysis using KaleidaGraph (obtained from Synergy Software, Reading, Pa.).

[4] = target: E. coli 17β-hydroxysteroid dehydrogenase (Escherichia coli, UniProt P0AET8); assay: Inhibition of related SDR family member (E. coli enzyme); format: biochemical; conditions: at concentrations as high as 100 μM
E. coli 17β-hydroxysteroid dehydrogenase, sequence (P0AET8 whole entry): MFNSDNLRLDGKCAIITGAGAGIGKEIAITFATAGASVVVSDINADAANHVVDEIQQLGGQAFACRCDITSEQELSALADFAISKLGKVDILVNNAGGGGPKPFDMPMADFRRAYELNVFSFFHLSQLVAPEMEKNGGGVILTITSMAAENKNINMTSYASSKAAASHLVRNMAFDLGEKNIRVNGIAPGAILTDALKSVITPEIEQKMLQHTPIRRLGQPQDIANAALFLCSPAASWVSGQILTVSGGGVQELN

[5] = target: T1, wild-type ERAB or HADH2; assay: Isothermal titration calorimetry, cofactor binding experiments; conditions: 2.68 mM cofactor titrated into 127 μM wild-type ERAB or HADH2, 15° C.; read-out: Kd for NAD+
Description: as §1, §2
For the NADH titration, the syringe contained 700 μM cofactor and the cell contained 35 μM wild type ERAB or HADH2. For the NAD^+ titration, the syringe contained 2.68 mM cofactor and the cell contained 127 μM wild-type ERAB or HADH2.

## O=C(C(c1ccccc1)n1cnc2[nH]ncc2c1=S)N1CCCCCC1 (racemic) [Compound I, 1-azepan-1-yl-2-phenyl-2-(4-thioxo-1,4-dihydro-pyrazolo[3,4-d]pyrimidin-5-yl)-ethanone]
[1]; ERAB 415 μM titrated into 20 μM inhibitor alone, 15° C.
  ITC binding to ERAB or HADH2 in the absence of cofactor: binds weakly; also recorded: No binding was detected
[1]; ERAB titrated into equimolar 20 μM inhibitor and NAD+, 15° C.
  ITC binding to ERAB or HADH2 in the presence of NAD+: tight-binding curve
[1]; ERAB titrated into equimolar 20 μM inhibitor and NADH, 15° C.
  ITC binding to ERAB or HADH2 in the presence of NADH: binds weakly
[1]; with NAD+ versus absence of NAD+
  binding to ERAB or HADH2 more potent with NAD+ than in the absence of NAD+: approximately 1000 fold
[2]
  inhibition of Streptomycetes hydrogenans 3α-20β-hydroxysteroid dehydrogenase: no detectable inhibition
[3]; Compound I made according to Scheme 1
  IC50 against ERAB: 0.088 µM
[3]; Compound I made according to Scheme 2, racemic mixture
  average IC50 against ERAB or HADH2: 0.092 ± 0.005 µM
[4]
  inhibition of E. coli 17β-hydroxysteroid dehydrogenase: no detectable inhibition

## NC(=O)c1ccc[n+]([C@@H]2O[C@H](COP(=O)([O-])OP(=O)(O)OC[C@H]3O[C@@H](n4cnc5c(N)ncnc54)[C@H](O)[C@@H]3O)[C@@H](O)[C@H]2O)c1 [NAD^+, reference compound]
[1]; ERAB 415 μM titrated into 20 μM NAD+ alone, 15° C.
  ITC binding when ERAB or HADH2 titrated into cofactor alone: No binding was detected
[5]
  Kd: ~500 µM
